Patent US8871753B2, “Macrocyclic compounds and their use as kinase inhibitors” (Incyte Corporation, priority 2008, dated 2014)
Where a name gives a salt, the structure may show the parent alone. Read-outs that look alike come from different tables or passages of the source.

Assays:
Format in all cases: biochemical
[1] = molecular target: T1, human JAK3 (a.a. 781-1124) (Homo sapiens, UniProt P52333); assay: In vitro JAK kinase assay (HTRF, phosphorylation of a biotinylated peptide), JAK3
T1 construct: JAK3 (a.a. 781-1124); His tag (N); made in house; host or cells: insect cells (baculovirus)
T1 sequence (P52333 781-1124): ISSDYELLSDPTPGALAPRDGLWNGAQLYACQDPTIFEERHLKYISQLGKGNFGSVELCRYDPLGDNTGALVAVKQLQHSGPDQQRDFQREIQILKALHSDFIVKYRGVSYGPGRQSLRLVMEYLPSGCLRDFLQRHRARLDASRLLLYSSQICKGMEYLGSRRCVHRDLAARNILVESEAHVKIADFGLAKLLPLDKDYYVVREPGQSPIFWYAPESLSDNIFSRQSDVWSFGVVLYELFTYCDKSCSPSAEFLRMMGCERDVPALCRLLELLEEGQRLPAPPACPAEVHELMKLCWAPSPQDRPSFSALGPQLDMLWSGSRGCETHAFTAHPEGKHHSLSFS
Procedure, shortened: (§1)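 Kinase reactions ran at room temperature for 1 h with ATP matched per isoform (JAK1 90 μM, JAK2 30 μM, JAK3 3 μM). After an EDTA stop, the phosphorylated biotin-peptide was read by HTRF using Eu-Py20 and SA-APC after 40 min binding.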

[2] = molecular target: T2, human JAK1 (a.a. 837-1142) (Homo sapiens, UniProt P23458); assay: In vitro JAK kinase assay (HTRF, phosphorylation of a biotinylated peptide), JAK1; conditions: read-out: JAK1 IC50
T2 construct: human JAK1 (a.a. 837-1142); His tag (N); made in house; host or cells: insect cells (baculovirus)
T2 sequence (P23458 849-1154): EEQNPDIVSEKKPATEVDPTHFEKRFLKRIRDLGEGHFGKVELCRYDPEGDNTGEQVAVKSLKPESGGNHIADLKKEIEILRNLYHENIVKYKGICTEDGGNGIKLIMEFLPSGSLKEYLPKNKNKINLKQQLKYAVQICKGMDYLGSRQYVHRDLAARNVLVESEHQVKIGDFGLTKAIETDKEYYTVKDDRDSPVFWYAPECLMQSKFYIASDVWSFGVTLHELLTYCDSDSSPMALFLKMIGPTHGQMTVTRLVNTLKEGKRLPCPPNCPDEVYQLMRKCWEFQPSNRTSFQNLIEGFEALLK
Procedure, shortened: as §1

[3] = molecular target: T3, Recombinant Human Anaplastic Lymphoma Kinase (Homo sapiens, UniProt Q9UM73); assay: ALK HTRF kinase assay
T3 construct: purchased Invitrogen, Carlsbad, Calif
T3 sequence (Q9UM73 19-1620): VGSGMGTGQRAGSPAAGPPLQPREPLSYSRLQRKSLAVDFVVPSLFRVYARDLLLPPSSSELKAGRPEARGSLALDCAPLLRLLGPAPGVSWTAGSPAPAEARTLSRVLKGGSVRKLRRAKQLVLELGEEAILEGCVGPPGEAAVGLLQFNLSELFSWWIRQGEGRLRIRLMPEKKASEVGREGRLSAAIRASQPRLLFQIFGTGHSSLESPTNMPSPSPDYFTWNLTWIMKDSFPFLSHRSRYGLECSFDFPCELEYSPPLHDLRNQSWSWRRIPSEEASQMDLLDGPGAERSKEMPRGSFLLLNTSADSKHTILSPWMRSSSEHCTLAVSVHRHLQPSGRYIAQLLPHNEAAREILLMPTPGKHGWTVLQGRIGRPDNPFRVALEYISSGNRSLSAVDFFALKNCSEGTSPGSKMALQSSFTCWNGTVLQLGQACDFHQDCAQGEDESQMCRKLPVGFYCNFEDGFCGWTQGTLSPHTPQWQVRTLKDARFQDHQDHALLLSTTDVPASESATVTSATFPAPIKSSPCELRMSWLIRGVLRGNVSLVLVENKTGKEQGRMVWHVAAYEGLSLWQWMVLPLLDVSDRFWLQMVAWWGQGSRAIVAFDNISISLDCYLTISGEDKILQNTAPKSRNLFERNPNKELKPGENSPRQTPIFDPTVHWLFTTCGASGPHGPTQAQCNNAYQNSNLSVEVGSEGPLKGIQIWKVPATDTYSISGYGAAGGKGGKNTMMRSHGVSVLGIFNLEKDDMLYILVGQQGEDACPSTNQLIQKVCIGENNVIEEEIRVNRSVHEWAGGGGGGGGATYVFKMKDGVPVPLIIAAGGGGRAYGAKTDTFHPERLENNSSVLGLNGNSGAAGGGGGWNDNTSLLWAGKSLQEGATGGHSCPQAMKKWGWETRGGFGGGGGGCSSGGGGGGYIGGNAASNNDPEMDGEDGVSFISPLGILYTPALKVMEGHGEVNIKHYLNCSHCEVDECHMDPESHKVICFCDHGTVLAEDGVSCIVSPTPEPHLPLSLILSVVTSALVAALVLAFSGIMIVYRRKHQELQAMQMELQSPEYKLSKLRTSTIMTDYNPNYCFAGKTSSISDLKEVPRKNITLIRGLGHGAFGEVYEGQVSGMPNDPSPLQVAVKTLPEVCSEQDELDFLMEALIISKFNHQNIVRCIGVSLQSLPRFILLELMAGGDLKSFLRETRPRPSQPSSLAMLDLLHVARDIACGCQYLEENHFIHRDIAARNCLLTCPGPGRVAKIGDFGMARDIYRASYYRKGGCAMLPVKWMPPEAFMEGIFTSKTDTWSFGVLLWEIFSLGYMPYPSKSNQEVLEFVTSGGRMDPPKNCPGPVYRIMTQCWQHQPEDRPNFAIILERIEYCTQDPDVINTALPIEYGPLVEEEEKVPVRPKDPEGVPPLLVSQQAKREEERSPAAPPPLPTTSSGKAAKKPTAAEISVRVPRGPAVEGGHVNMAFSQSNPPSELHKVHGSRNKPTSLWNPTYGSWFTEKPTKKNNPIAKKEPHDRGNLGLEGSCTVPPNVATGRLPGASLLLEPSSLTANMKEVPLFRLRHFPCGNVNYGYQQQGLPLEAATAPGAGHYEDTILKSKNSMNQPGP
Text: Materials: Recombinant Human Anaplastic Lymphoma Kinase was purchased from Invitrogen, Carlsbad, Calif. Peptide substrate (Biotin-[…]-amide) was custom synthesized at EZBiolab, Westfield, Ind. Streptavidin conjugated SureLight-Allophycocyania and LANCE Eu-W1024 labeled anti-phosphotyrosine antibody were from Perkin-Elmer, Boston, Mass. Microplates were from Corning Inc., Acton, Mass. All other reagents were from Sigma, St. Louis, Mo.
Plates were read in Fusion α-FP instrument (Perkin-Elmer). […] Signal=Bottom+(Top−Bottom)/(1+10^((Log(IC50)−Log [I])*Hill Slope) Bottom and Top refer to the post and pre-transition baselines, respectively.

[4] = molecular target: T4, human JAK2 (a.a. 828-1132) (Homo sapiens, UniProt O60674); assay: In vitro JAK kinase assay (HTRF, phosphorylation of a biotinylated peptide), JAK2
T4 construct: JAK2 (a.a. 828-1132); His tag (N); made in house; host or cells: insect cells (baculovirus)
T4 sequence (O60674 828-1132): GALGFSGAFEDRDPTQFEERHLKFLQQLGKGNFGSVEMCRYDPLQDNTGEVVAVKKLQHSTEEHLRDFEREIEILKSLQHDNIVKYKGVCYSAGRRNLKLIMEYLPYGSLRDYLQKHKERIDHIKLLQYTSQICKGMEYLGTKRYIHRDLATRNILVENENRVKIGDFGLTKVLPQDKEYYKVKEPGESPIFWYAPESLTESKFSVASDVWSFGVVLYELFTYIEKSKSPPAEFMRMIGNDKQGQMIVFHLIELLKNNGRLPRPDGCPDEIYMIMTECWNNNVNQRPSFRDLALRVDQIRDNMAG
Procedure, shortened: as §1

TYK2 = TYK2 (Homo sapiens, UniProt P29597); assay: TYK2 kinase inhibition (Table A1)
TYK2, sequence (P29597 whole entry): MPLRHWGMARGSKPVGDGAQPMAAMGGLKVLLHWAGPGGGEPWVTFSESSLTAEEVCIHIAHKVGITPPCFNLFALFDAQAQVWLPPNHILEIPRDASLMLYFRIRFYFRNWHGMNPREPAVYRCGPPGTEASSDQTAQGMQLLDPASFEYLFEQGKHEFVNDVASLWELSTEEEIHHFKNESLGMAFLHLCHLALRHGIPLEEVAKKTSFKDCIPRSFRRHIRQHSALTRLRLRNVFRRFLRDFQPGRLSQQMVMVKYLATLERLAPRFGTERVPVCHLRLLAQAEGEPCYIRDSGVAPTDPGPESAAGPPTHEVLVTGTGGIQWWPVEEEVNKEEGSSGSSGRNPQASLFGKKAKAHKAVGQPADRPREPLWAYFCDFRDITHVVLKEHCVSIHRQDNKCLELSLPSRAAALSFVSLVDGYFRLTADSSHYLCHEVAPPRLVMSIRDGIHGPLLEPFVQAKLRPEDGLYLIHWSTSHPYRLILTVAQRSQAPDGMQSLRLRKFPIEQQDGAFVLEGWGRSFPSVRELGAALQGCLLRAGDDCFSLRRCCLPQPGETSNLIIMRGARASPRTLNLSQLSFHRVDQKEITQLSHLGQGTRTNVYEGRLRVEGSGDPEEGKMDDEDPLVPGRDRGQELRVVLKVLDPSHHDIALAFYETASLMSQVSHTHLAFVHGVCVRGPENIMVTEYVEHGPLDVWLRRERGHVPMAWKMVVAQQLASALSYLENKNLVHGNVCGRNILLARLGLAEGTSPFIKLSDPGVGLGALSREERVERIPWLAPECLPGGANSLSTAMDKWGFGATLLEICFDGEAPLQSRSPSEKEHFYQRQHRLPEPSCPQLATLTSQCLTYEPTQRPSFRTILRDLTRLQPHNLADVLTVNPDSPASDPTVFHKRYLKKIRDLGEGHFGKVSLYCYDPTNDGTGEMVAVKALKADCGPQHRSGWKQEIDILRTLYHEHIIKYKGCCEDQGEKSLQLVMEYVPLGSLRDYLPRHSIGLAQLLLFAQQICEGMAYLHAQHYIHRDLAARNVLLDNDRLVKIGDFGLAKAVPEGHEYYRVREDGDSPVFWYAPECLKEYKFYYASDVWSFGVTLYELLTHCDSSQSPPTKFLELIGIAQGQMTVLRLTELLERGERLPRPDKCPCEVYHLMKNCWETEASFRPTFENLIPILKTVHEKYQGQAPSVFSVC

[5] = method AA1 (3 μM ATP) or AA2 (1000 μM ATP), not stated per value
[6] = method AA1 (90 μM ATP) or AA2 (1000 μM ATP), not stated per value
[7] = compound at 500 nM or 1 mM, 90 μM ATP
[8] = method AA1 (30 μM ATP) or AA2 (1000 μM ATP), not stated per value

Row | Structure (SMILES) | IC50 ([1]; Table B1) [µM] | IC50 ([2]; Table B1) [µM] | IC50 [1, 5] [µM] | ALK % of inhibition at a concentration of 500 nM or 1 mM [3, 7] [%] | IC50 [4, 8] [µM] | IC50 (TYK2) [µM] | also measured
1 | CC(C)(C)OC(=O)N1CCN(CCNC(=O)Nc2ccc3cc2CCc2cccc(c2)Nc2ncc(Cl)c(n2)N3)CC1 [Example B259, tert-Butyl 4-{2-[({[6-chloro-2,4,8,22-tetraazatetracyclo[14.3.1.1(3,7).1(9,13)]docosa-1(20),3(22),4,6,9(21),10,12,16,18-nonaen-12-yl]amino}carbonyl)amino]ethyl}piperazine-1-carboxylate] | 0.052 | 0.0038 | – | – | – | – | ALK % of inhibition at a concentration of 500 nM or 1 mM ([3]; compound at a concentration of 500 nM or 1 mM (not specified), cells shown as percentage): 13%; IC50 ([4]; Table B1): 0.007 µM; IC50 (TYK2; Table B1): 0.023 µM
2 | O=C(Nc1ccccc1)N[C@@H](CO)C(=O)Nc1ccc2cc1CCc1cccc(c1)Nc1ncc(Cl)c(n1)N2 [Example A68, (2S)-2-[(Anilinocarbonyl)amino]-N-[6-chloro-2,4,8,22-tetraazatetracyclo[14.3.1.1(3,7).1(9,13)]docosa-1(20),3(22),4,6,9(21),10,12,16,18-nonaen-12-yl]-3-hydroxypropanamide trifluoroacetate] | – | – | 0.0041 | 46 | 0.0028 | 0.011 | IC50 [2, 6]: 0.002 µM
3 | COc1cccc(S(=O)(=O)N2CCC(CC(=O)Nc3ccc4cc3CCc3cccc(c3)Nc3ncc(Cl)c(n3)N4)CC2)c1 [Example A206, N-[6-Chloro-2,4,8,22-tetraazatetracyclo[14.3.1.1(3,7).1(9,13)]docosa-1(20),3(22),4,6,9(21),10,12,16,18-nonaen-12-yl]-2-{1-[(3-methoxyphenyl)sulfonyl]piperidin-4-yl}acetamide trifluoroacetate] | – | – | > 0.2 | 15 | > 0.2 | > 0.2 | –
4 | N#Cc1ccc(C(=O)N2CCC(CC(=O)Nc3ccc4cc3CCc3cncc(c3)Nc3ncc(Cl)c(n3)N4)CC2)cc1 [Example A190, N-[6-Chloro-2,4,8,18,22-pentaazatetracyclo[14.3.1.1(3,7).1(9,13)]docosa-1(20),3(22),4,6,9(21),10,12,16,18-nonaen-12-yl]-2-[1-(4-cyanobenzoyl)piperidin-4-yl]acetamide bis(trifluoroacetate)] | – | – | > 0.2 | 27 | > 0.2 | > 0.2 | –
5 | Cc1ccccc1S(=O)(=O)Nc1ccc2cc1CCc1cccc(c1)Nc1ncc(Cl)c(n1)N2 [Example B149, N-[6-Chloro-2,4,8,22-tetraazatetracyclo[14.3.1.1(3,7).1(9,13)]docosa-1(20), 3(22),4,6,9(21),10,12,16,18-nonaen-12-yl]-2-methylbenzenesulfonamide trifluoroacetate] | 0.0024 | 0.00015 | – | – | – | – | IC50 ([3]; Table B1, cells without percent sign): 0.35 µM; IC50 (TYK2; Table B1): 0.00051 µM
6 | [O-][S+]1CCc2cccc(c2)Nc2ncc(Cl)c(n2)Nc2cccc1c2 (stereo not shown) [Example D23, 6-Chloro-14-thia-2,4,8,23-tetraazatetracyclo[15.3.1.1(3,7).1(9,13)]tricosa-1(21),3(23),4,6,9(22),10,12,17,19-nonaene 14-oxide trifluoroacetate] | – | – | – | – | – | – | IC50 ([1]; Table D1): 0.021 µM; IC50 ([3]; Table D1, 90 μM ATP): 1.21 µM; IC50 ([4]; Table D1): 0.0049 µM; IC50 (TYK2; Table D1): 0.023 µM
7 | O=C(Nc1ccc2cc1CCc1cncc(c1)Nc1ncc(Cl)c(n1)N2)N1CCN(c2ncc(C(F)(F)F)cc2Cl)CC1 [Example B302, N-[6-Chloro-2,4,8,18,22-pentaazatetracyclo[14.3.1.1(3,7).1(9,13)]docosa-1(20),3(22),4,6,9(21),10,12,16,18-nonaen-12-yl]-4-[3-chloro-5-(trifluoromethyl)pyridin-2-yl]piperazine-1-carboxamide tris(trifluoroacetate)] | > 0.4 | 0.119 | – | – | – | – | ALK % of inhibition at a concentration of 500 nM or 1 mM ([3]; percentage inhibition of the example compound at a concentration of 500 nM or 1 mM (not specified which)): 69%; IC50 ([4]; Table B1): > 0.4 µM
8 | Cc1noc(C)c1NC(=O)N1CCC(CC(=O)Nc2ccc3cc2CCc2cncc(c2)Nc2ncc(Cl)c(n2)N3)CC1 [Example A19, bis(trifluoroacetate)] | – | – | > 0.1 | – | 0.054 | – | IC50 [2, 6]: 0.017 µM; ALK % of inhibition at a concentration of 500 nM or 1 mM ([3]; compound at 500 nM or 1 mM, 90 μM ATP, bis(trifluoroacetate)): 17%
